Reference: PMC11012124, “Synthesis of Novel Triazine-Based Chalcones and 8,9-dihydro-7H-pyrimido[4,5-b][1,4]diazepines as Potential Leads in the Search of Anticancer, Antibacterial and Antifungal Agents” (International Journal of Molecular Sciences, 2024)

Tests used:
U251 = experiment: cells; settings: Homo sapiens, U-251, 48 h
MDA-MB-468 = experiment: cells; settings: Homo sapiens, MDA-MB-468, 48 h
PC-3 = experiment: cells; settings: Homo sapiens, PC-3, 48 h
HS 578T = experiment: cells; settings: Homo sapiens, 48 h
UACC-62 = experiment: cells; settings: Homo sapiens, UACC-62, 48 h
UO-31 = experiment: cells; settings: Homo sapiens, UO-31, 48 h
MOLT-4 = experiment: cells; settings: Homo sapiens, MOLT-4, 48 h
OVCAR-3 = experiment: cells; settings: Homo sapiens, OVCAR-3, 48 h
786-0 = experiment: cells; settings: Homo sapiens, 786-0, 48 h
NCI-H322M = experiment: cells; settings: Homo sapiens, 48 h
M14 = experiment: cells; settings: Homo sapiens, M14, 48 h
HOP-92 = experiment: cells; settings: Homo sapiens, HOP-92, 48 h
SK-MEL-5 = experiment: cells; settings: Homo sapiens, SK-MEL-5, 48 h
SF-268 = experiment: cells; settings: Homo sapiens, SF-268, 48 h
HT29 = experiment: cells; settings: Homo sapiens, HT-29, 48 h
RPMI-8226 = experiment: cells; settings: Homo sapiens, RPMI-8226, 48 h
ACHN = experiment: cells; settings: Homo sapiens, 48 h
COLO 205 = experiment: cells; settings: Homo sapiens, COLO 205, 48 h
SNB-19 = experiment: cells; settings: Homo sapiens, SNB-19, 48 h
SF-295 = experiment: cells; settings: Homo sapiens, SF-295, 48 h
SF-539 = experiment: cells; settings: Homo sapiens, SF-539, 48 h
LOX IMVI = experiment: cells; settings: Homo sapiens, 48 h
HOP-62 = experiment: cells; settings: Homo sapiens, HOP-62, 48 h
A549/ATCC = experiment: cells; settings: Homo sapiens, A549, 48 h
HCC-2998 = experiment: cells; settings: Homo sapiens, HCC 2998, 48 h
HCT-116 = experiment: cells; settings: Homo sapiens, HCT-116, 48 h
BT-549 = experiment: cells; settings: Homo sapiens, BT-549, 48 h
NCI-H226 = experiment: cells; settings: Homo sapiens, NCI-H226, 48 h
RXF 393 = experiment: cells; settings: Homo sapiens, RXF 393, 48 h
60 cancer cell lines = experiment: NCI-60 one-dose screen (10 μM); format: cell-based; settings: Homo sapiens; one dose of 10 μM, mean over 60 cancer cell lines; read-out: Mean Growth Percent (MGP)
Excerpt: Additionally, the mean of the growth percentages (MGP) of each compound against all the 60 cancer cell lines is also reported, which is used as one of the selection criteria to continue with tests at five concentration doses.

MDA-MB-231/ATCC = experiment: cells; settings: Homo sapiens, MDA-MB-231, 48 h
A498 = experiment: cells; settings: Homo sapiens, A498, 48 h
UACC-257 = experiment: cells; settings: Homo sapiens, UACC-257, 48 h
HCT-15 = experiment: cells; settings: Homo sapiens, HCT-15, 48 h
NCI-H23 = experiment: cells; settings: Homo sapiens, NCI-H23, 48 h
SNB-75 = experiment: cells; settings: Homo sapiens, SNB-75, 48 h
EKVX = experiment: cells; settings: Homo sapiens, 48 h

SMILES: CN(C)c1nc(NCCNS(=O)(=O)c2ccc(C(=O)/C=C/c3ccc(Cl)cc3)cc2)nc(Nc2ccc(F)cc2)n1 [24e]
- GI50 (U251; U251, 48 h): 5.25 µM
- CC50 (U251; read-out: LC50): 18.6 µM
- GI50 (MDA-MB-468): 3.71 µM
- CC50 (MDA-MB-468; read-out: LC50): 14.8 µM
- GI50 (PC-3): 3.74 µM
- CC50 (PC-3; read-out: LC50): 14.1 µM
- GI50 (HS 578T): 11.4 µM
- CC50 (HS 578T; read-out: LC50): 58.1 µM
- GI50 (UACC-62): 5.41 µM
- CC50 (UACC-62; read-out: LC50): 18.7 µM
- GI50 (UO-31): 4 µM
- CC50 (UO-31; read-out: LC50): 16.6 µM
- GI50 (MOLT-4): 3.07 µM
- CC50 (MOLT-4; read-out: LC50): > 100 µM
- GI50 (OVCAR-3): 3.16 µM
- CC50 (OVCAR-3; read-out: LC50): 11.9 µM
- GI50 (786-0): 7.28 µM
- CC50 (786-0; read-out: LC50): 20.2 µM
- GI50 (NCI-H322M): 9.36 µM
- CC50 (NCI-H322M; read-out: LC50): 24.9 µM
- GI50 (M14): 4.14 µM
- CC50 (M14; read-out: LC50): 15.3 µM
- GI50 (HOP-92): 3.83 µM
- CC50 (HOP-92; read-out: LC50): 14.7 µM
- GI50 (SK-MEL-5): 5.89 µM
- CC50 (SK-MEL-5; read-out: LC50): 18.8 µM
- GI50 (SF-268): 6.21 µM
- CC50 (SF-268; read-out: LC50): 23.5 µM
- GI50 (HT29): 2.15 µM
- CC50 (HT29; read-out: LC50): 5.72 µM
- GI50 (RPMI-8226): 2.47 µM
- CC50 (RPMI-8226; read-out: LC50): 7.11 µM
- GI50 (ACHN): 4.2 µM
- CC50 (ACHN; read-out: LC50): 15.3 µM
- GI50 (COLO 205): 5.96 µM
- CC50 (COLO 205; read-out: LC50): 18.7 µM
- GI50 (SNB-19): 9.18 µM
- CC50 (SNB-19; read-out: LC50): 21.3 µM
- GI50 (SF-295): 6.11 µM
- CC50 (SF-295; read-out: LC50): 19.8 µM
- GI50 (SF-539): 10.1 µM
- CC50 (SF-539; read-out: LC50, SF-539, 48 h): 22 µM
- GI50 (LOX IMVI): 2.74 µM
- CC50 (LOX IMVI; read-out: LC50, LOX IMVI, 48 h): 9.16 µM
- GI50 (HOP-62): 12.5 µM
- CC50 (HOP-62; read-out: LC50): 27.5 µM
- GI50 (A549/ATCC): 4.52 µM
- CC50 (A549/ATCC; read-out: LC50): 17.4 µM
- GI50 (HCC-2998): 2.48 µM
- CC50 (HCC-2998; read-out: LC50): 6.9 µM
- GI50 (HCT-116): 1.66 µM
- CC50 (HCT-116; read-out: LC50): 3.11 µM
- GI50 (BT-549): 11.6 µM
- CC50 (BT-549; read-out: LC50): 23.9 µM
- GI50 (NCI-H226): 6.14 µM
- CC50 (NCI-H226; read-out: LC50): 24.3 µM
- GI50 (RXF 393): 3.09 µM
- CC50 (RXF 393; read-out: LC50): 15.1 µM
- activity at 10 µM (60 cancer cell lines): -46.6%
- GI50 (MDA-MB-231/ATCC): 4.72 µM
- CC50 (MDA-MB-231/ATCC; read-out: LC50): 17.4 µM
- GI50 (A498): 10.5 µM
- CC50 (A498; read-out: LC50): 23.1 µM
- GI50 (UACC-257): 8.36 µM
- CC50 (UACC-257; read-out: LC50): 21.8 µM
- GI50 (HCT-15): 4.62 µM
- CC50 (HCT-15; read-out: LC50): 16.9 µM
- GI50 (NCI-H23): 10.7 µM
- CC50 (NCI-H23; read-out: LC50): 23.4 µM
- GI50 (SNB-75): 5.6 µM
- CC50 (SNB-75; read-out: LC50): 25.7 µM
- GI50 (EKVX): 3.11 µM
- CC50 (EKVX; read-out: LC50): 14.7 µM
